The text below walks through data of patent publication US10568884B2, “Compounds and compositions as protein kinase inhibitors” (Array BioPharma, Inc., priority 2009, dated 2020).

Tested on in the first series: not listed separately
The series can be described thus: Liver Microsomal Clearance Assay (mouse). Format: in vitro ADME. The note with it: extraction ratio, mouse liver microsomes, 1 μM compound. The protocol:
(§1) The in vitro microsomal clearance assay is designed to assess potential risks associated with hepatic metabolic stability of compounds. The test compound (1 μM) was incubated with liver microsomes (0.5 mg/mL) from different species (mouse, rat, monkey, dog and human) and NADPH (1 mM) in 100 mM potassium phosphate buffer at 37° C. At specific reaction time points (0, 5, 10 and 30 minutes), reaction aliquots were removed and reactions were terminated by addition of ice cold acetonitrile containing mass spectrometry internal standard. The samples were centrifuged and the supernatants were analyzed by LC-MS/MS. In vitro metabolic half-life (t1/2, min) and intrinsic clearance (CLint, μL/min/mg) are based on the rate and extent of metabolism of the test compound as determined by the disappearance of the parent compound from the reaction mixture. These values may be scaled to predict hepatic metabolic clearance rate (CLh, mL/min/kg) and extraction ratio (ER, expressed as a ratio of the predicted hepatic metabolic clearance to hepatic blood flow in that species). In general, compounds with high predictedCLint or ER in vitro are considered to be at high risk for exposure-limiting metabolism in vivo.
In general terms: Liver microsomes are vesicles of endoplasmic reticulum, rich in cytochrome P450 enzymes.
Turning to `CCCS(=O)(=O)Nc1ccc(F)c(-c2nn(C(C)C)cc2-c2ccnc(NC[C@H](C)NC(=O)OC)n2)c1F` [Compound 7, Methyl N-[(2S)-1-[(4-{3-[2,6-difluoro-3-(propane-1-sulfonamido)phenyl]-1-(propan-2-yl)-1H-pyrazol-4-yl}pyrimidin-2-yl)amino]propan-2-yl]carbamate], the “ER Mouse” value was 0.91.

Another series has as its system A375 melanoma cell line (B-Raf V600E). Nature of the series: A375 Cellular Proliferation Assay (A375 CP). Type of series: cell-based. As to conditions: Homo sapiens, A-375, 48 h; A375-luc cells, 2 days; read-out: A375 CP IC50. The protocol:
A375-luc cells engineered to express luciferase are plated to 384-well white clear bottom plates as 1,500 cells/50 μl/well in DMEM containing 10% FBS. Compounds of the invention dissolved in 100% DMSO at appropriate concentrations are transferred to the cells by a robotic Pin Tool (100 nl). The cells are incubated for 2 days at […], then 25 μl of BrightGlo™ is added to each well and the plates are read by luminescence.
A word on the IC50: it is the midpoint of a concentration-inhibition curve. In the case of `CCCS(=O)(=O)Nc1ccc(F)c(-c2nn(C(C)C)cc2-c2ccnc(NC[C@H](C)NC(=O)OC)n2)c1F` [Compound 7, Methyl N-[(2S)-1-[(4-{3-[2,6-difluoro-3-(propane-1-sulfonamido)phenyl]-1-(propan-2-yl)-1H-pyrazol-4-yl}pyrimidin-2-yl)amino]propan-2-yl]carbamate], the IC50 was 8 nM.
The same measure, in the same setting: then `CC(C)n1cc(-c2ccnc(N)n2)c(-c2cc(Cl)cc(NS(C)(=O)=O)c2F)n1` [Compound 30, N-{3-[4-(2-aminopyrimidin-4-yl)-1-(propan-2-yl)-1H-pyrazol-3-yl]-5-chloro-2-fluorophenyl}methanesulfonamide], with 69 nM.
Take `CCn1cc(-c2ccnc(NC[C@H](C)NC(=O)OC)n2)c(-c2cc(Cl)cc(NS(C)(=O)=O)c2F)n1` [Compound 11, methyl N-[(2S)-1-({4-[3-(5-chloro-2-fluoro-3-methanesulfonamidophenyl)-1-ethyl-1H-pyrazol-4-yl]pyrimidin-2-yl}amino)propan-2-yl]carbamate]: the IC50 worked out at 3 nM.
Same read-out and setting: as for `CC(C)n1cc(-c2ccnc(NCCC#N)n2)c(-c2cc(Cl)cc(NS(C)(=O)=O)c2F)n1` [Compound 17, N-[5-chloro-3-(4-{2-[(2-cyanoethyl)amino]pyrimidin-4-yl}-1-(propan-2-yl)-1H-pyrazol-3-yl)-2-fluorophenyl]methanesulfonamide], the figure is 2 nM; as for `COC(=O)N[C@H](C)CNc1nccc(-c2cn(C(C)C)nc2-c2cc(Cl)cc(NS(C)(=O)=O)c2F)n1` [Compound 20, methyl N-[(2R)-1-({4-[3-(5-chloro-2-fluoro-3-methanesulfonamidophenyl)-1-(propan-2-yl)-1H-pyrazol-4-yl]pyrimidin-2-yl}amino)propan-2-yl]carbamate], 7 nM; as for `CCS(=O)(=O)Nc1c(F)ccc(-c2nn(C(C)C)cc2-c2ccnc(NC[C@H](C)NC(=O)OC)n2)c1F` [Compound 26, methyl N-[(2S)-1-({4-[3-(3-ethanesulfonamido-2,4-difluorophenyl)-1-(propan-2-yl)-1H-pyrazol-4-yl]pyrimidin-2-yl}amino)propan-2-yl]carbamate], 14 nM.
On the same count and under the same terms, as for `CCCS(=O)(=O)Nc1c(F)ccc(-c2nn(C(C)C)cc2-c2ccnc(NC[C@H](C)NC(=O)OC)n2)c1F` [Compound 34], the figure is 13 nM; as for `COC(=O)N[C@@H](C)CNc1nccc(-c2cn(C(C)C)nc2-c2cc(F)cc(NS(C)(=O)=O)c2Cl)n1` [Compound 15, Methyl N-[(2S)-1-({4-[3-(2-chloro-5-fluoro-3-methanesulfonamidophenyl)-1-(propan-2-yl)-1H-pyrazol-4-yl]pyrimidin-2-yl}amino)propan-2-yl]carbamate], 4 nM; as for `COC(=O)N[C@@H](C)CNc1nccc(-c2cn(C3CCCCO3)nc2-c2cc(Cl)cc(NS(C)(=O)=O)c2F)n1` (stereo partly drawn) [Compound 33, Methyl N-[(2S)-1-({4-(3-(5-chloro-2-fluoro-3-methanesulfonamidophenyl)-1-(oxan-2-yl)-1H-pyrazol-4-yl]pyrimidin-2-yl}amino)propan-2-yl]carbamate], 7 nM.
As for `COC(=O)N[C@@H](C)CNc1nccc(-c2cn(C(C)C)nc2-c2ccnc(NS(C)(=O)=O)c2Cl)n1` [Compound 14, methyl N-[(2S)-1-({4-[3-(3-chloro-2-methanesulfonamidopyridin-4-yl)-1-(propan-2-yl)-1H-pyrazol-4-yl]pyrimidin-2-yl}amino)propan-2-yl]carbamate], the IC50 was 79 nM.
Same read-out and setting: then `COC(=O)N[C@@H](C)CNc1nccc(-c2cn(C(C)C)nc2-c2cccc(NS(=O)(=O)CCC(F)(F)F)c2F)n1` [Compound 8], with 27 nM; and `COC(=O)N[C@@H](C)CNc1nccc(-c2cn(C(C)C)nc2-c2cc(Cl)cc(NS(C)(=O)=O)c2Cl)n1` [Compound 22, methyl N-[(2S)-1-({4-[3-(2,5-dichloro-3-methanesulfonamidophenyl)-1-(propan-2-yl)-1H-pyrazol-4-yl]pyrimidin-2-yl}amino)propan-2-yl]carbamate], with 6 nM; and `COC(=O)N[C@@H](C)CNc1nccc(-c2cn(C(C)C)nc2-c2cc(Cl)cc(NS(C)(=O)=O)c2)n1` [Compound 2, methyl N-[(2S)-1-({4-[3-(3-chloro-5-methanesulfonamidophenyl)-1-(propan-2-yl)-1H-pyrazol-4-yl]pyrimidin-2-yl}amino)propan-2-yl]carbamate], with 18 nM.
In the case of `COC(=O)N[C@@H](C)CNc1nccc(-c2cn(C(C)C)nc2-c2ccnc(NS(C)(=O)=O)c2F)n1` [Compound 16, methyl N-[(2S)-1-({4-[3-(3-fluoro-2-methanesulfonamidopyridin-4-yl)-1-(propan-2-yl)-1H-pyrazol-4-yl]pyrimidin-2-yl}amino)propan-2-yl]carbamate], the IC50 amounted to 1400 nM.
On the same count and under the same terms, as for `CC(C)n1cc(-c2ccnc(NCCN(C)C)n2)c(-c2cc(Cl)cc(NS(C)(=O)=O)c2F)n1` [Compound 28, N-{5-chloro-3-[4-(2-{[2-(dimethylamino)ethyl]amino}pyrimidin-4-yl)-1-(propan-2-yl)-1H-pyrazol-3-yl]-2-fluorophenyl}methanesulfonamide], the figure is 550 nM; as for `COC(=O)N[C@@H](C)CNc1nccc(-c2cn(C(C)C)nc2-c2cc(C)cc(NS(C)(=O)=O)c2F)n1` [Compound 12, methyl N-[(2S)-1-({4-[3-(2-fluoro-3-methanesulfonamido-5-methylphenyl)-1-(propan-2-yl)-1H-pyrazol-4-yl]pyrimidin-2-yl]amino)propan-2-yl]carbamate], 4 nM; as for `COC(=O)N[C@@H](C)CNc1nccc(-c2cn(C(C)C)nc2-c2c(F)ccc(NS(C)(=O)=O)c2F)n1` [Compound 6, methyl N-[(2S)-1-({4-[3-(2,6-difluoro-3-methanesulfonamidophenyl)-1-(propan-2-yl)-1H-pyrazol-4-yl]pyrimidin-2-yl]amino)propan-2-yl]carbamate], 46 nM.
Still for that read-out and setting: then `COC(=O)N[C@@H](C)CNc1nccc(-c2c[nH]nc2-c2cc(Cl)cc(NS(C)(=O)=O)c2F)n1` [Compound 31], with 180 nM.
Same read-out and setting: then `COC(=O)N[C@@H](C)CNc1nccc(-c2cn(C(C)C)nc2-c2cccc(NS(C)(=O)=O)c2)n1` [Compound 23, methyl N-[(2S)-1-({4-[3-(3-methanesulfonamidophenyl)-1-(propan-2-yl)-1H-pyrazol-4-yl]pyrimidin-2-yl}amino)propan-2-yl]carbamate], with 1150 nM; and `COC(=O)N[C@@H](C)CNc1nccc(-c2cn(C(C)C)nc2-c2cc(Cl)cc(NS(=O)(=O)C3CC3)c2F)n1` [Compound 25, methyl N-[(2S)-1-({4-[3-(5-chloro-3-cyclopropanesulfonamido-2-fluorophenyl)-1-(propan-2-yl)-1H-pyrazol-4-yl]pyrimidin-2-yl}amino)propan-2-yl]carbamate], with 2 nM.
For `CCCS(=O)(=O)Nc1cc(Cl)cc(-c2nn(C(C)C)cc2-c2ccnc(NC[C@H](C)NC(=O)OC)n2)c1` [Compound 5, methyl N-[(2S)-1-[(4-{3-[3-chloro-5-(propane-1-sulfonamido)phenyl]-1-(propan-2-yl)-1H-pyrazol-4-yl]pyrimidin-2-yl)amino]propan-2-yl]carbamate], the IC50 was found to be 1 nM.
Take `COC(=O)N[C@@H](C)CNc1nccc(-c2cn(C(C)C)nc2-c2cc(F)cc(NS(C)(=O)=O)c2F)n1` [Compound 10, methyl N-[(2S)-1-({4-[3-(2,5-difluoro-3-methanesulfonamidophenyl)-1-(propan-2-yl)-1H-pyrazol-4-yl]pyrimidin-2-yl]amino)propan-2-yl]carbamate]: the IC50 was 3 nM.
On the same count and under the same terms, then `CCS(=O)(=O)Nc1c(F)c(F)cc(-c2nn(C(C)C)cc2-c2ccnc(NC[C@H](C)NC(=O)OC)n2)c1Cl` [Compound 18, methyl N-[(2S)-1-({4-[3-(2-chloro-3-ethanesulfonamido-4,5-difluorophenyl)-1-(propan-2-yl)-1H-pyrazol-4-yl]pyrimidin-2-yl}amino)propan-2-yl]carbamate], with 12 nM; and `COC(=O)N[C@@H](C)CNc1nccc(-c2cn(C(C)C)nc2-c2cc(F)c(F)c(NS(C)(=O)=O)c2F)n1` [Compound 21, methyl N-[(2S)-1-({4-[1-(propan-2-yl)-3-(2,4,5-trifluoro-3-methanesulfonamidophenyl)-1H-pyrazol-4-yl]pyrimidin-2-yl}amino)propan-2-yl]carbamate], with 45 nM; and `COC(=O)N[C@@H](C)CNc1nccc(-c2cn(C(C)C)nc2-c2ccc(F)c(NS(C)(=O)=O)c2F)n1` [Compound 19, methyl N-[(2S)-1-({4-[3-(2,4-difluoro-3-methanesulfonamidophenyl)-1-(propan-2-yl)-1H-pyrazol-4-yl]pyrimidin-2-yl}amino)propan-2-yl]carbamate], with 93 nM.

Tested on in a further series: not listed separately
Nature of the series: Liver Microsomal Clearance Assay (human). As to conditions: extraction ratio, human liver microsomes, 1 μM compound. Format: in vitro ADME. The protocol:
as §1
Take `CCCS(=O)(=O)Nc1ccc(F)c(-c2nn(C(C)C)cc2-c2ccnc(NC[C@H](C)NC(=O)OC)n2)c1F` [Compound 7, Methyl N-[(2S)-1-[(4-{3-[2,6-difluoro-3-(propane-1-sulfonamido)phenyl]-1-(propan-2-yl)-1H-pyrazol-4-yl}pyrimidin-2-yl)amino]propan-2-yl]carbamate]: the “ER Human” value was 0.65.
For the molecule `COC(=O)N[C@@H](C)CNc1nccc(-c2cn(C(C)C)nc2-c2c(F)ccc(NS(C)(=O)=O)c2F)n1` [Compound 6, methyl N-[(2S)-1-({4-[3-(2,6-difluoro-3-methanesulfonamidophenyl)-1-(propan-2-yl)-1H-pyrazol-4-yl]pyrimidin-2-yl]amino)propan-2-yl]carbamate], the “ER Human” value is 0.69.
